Experimental data as given in publication PMC4463418, “The Effect of Hydrophobic Monoamines on Acid-Sensing Ion Channels ASIC1B” (Acta Naturae, 2015).

Tests used:
Type in all cases: cell-based
ASIC1b [1] = molecular target: T1, ASIC1b (Rattus norvegicus, UniProt P55926); test: whole-cell patch clamp, CHO cells, activation at pH […]
T1 construct: gene Asic1; homomeric rASIC1b (splice variant) expressed in CHO cells
T1 sequence (P55926 186-526 limits assumed): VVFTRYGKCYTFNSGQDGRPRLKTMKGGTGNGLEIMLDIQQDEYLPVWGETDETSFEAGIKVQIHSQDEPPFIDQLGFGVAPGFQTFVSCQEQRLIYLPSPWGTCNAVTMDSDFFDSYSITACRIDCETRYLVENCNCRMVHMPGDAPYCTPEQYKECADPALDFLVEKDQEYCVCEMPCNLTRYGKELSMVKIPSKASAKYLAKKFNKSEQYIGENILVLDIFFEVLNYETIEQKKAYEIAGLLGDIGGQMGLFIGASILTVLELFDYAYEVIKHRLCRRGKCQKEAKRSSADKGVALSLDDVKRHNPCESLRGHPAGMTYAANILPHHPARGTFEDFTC

ASIC1b [2] = molecular target: T1, ASIC1b; test: whole-cell patch clamp, CHO cells, block at […], pH […]
ASIC1b [3] = molecular target: T1, ASIC1b; test: whole-cell patch clamp, CHO cells, inhibition at […]

## Nc1c2ccccc2nc2ccccc12 [9AA, 9-aminoacridine]
ASIC1b [1]
  IC50: 440 ± 20 µM

## N=C(N)NC(=O)c1nc(Cl)c(N)nc1N [amiloride]
ASIC1b [2]
  inhibition at 30 µM: 53 ± 7%

## CC12CC3CC(C)(C1)CC(N)(C3)C2 [memantine]
ASIC1b [3]
  inhibition at 1000 µM: 44 ± 16%
